Activity calls are given as the source filed them. No cut-off for these calls is given here.
How the values were obtained:
MCF7 [1] = assay: Inhibition of colony formation in human MCF7 cells assessed as reduction in clonogenic capacity incubated for 24 hrs by crystal violet staining based analysis; format: functional, cell-based
HCT-116 [2] = assay: Cytotoxicity against human HCT-116 cells assessed as inhibition of cell proliferation incubated for 72 hrs by MTT assay; format: functional, cell-based; settings: HCT-116, 72 h
Mitochondrial membrane [3] = assay: Disruption of mitochondrial membrane integrity in human MCF7 cells assessed as change in mitochondrial size by TEM analysis; format: cell membranes
A549 [4] = assay: Inhibition of cell adhesion in human A549 cells assessed as reduction in cell aggregates formation at IC50 incubated for 48 hrs by inverted phase contrast microscopic analysis; format: functional, cell-based
A549 [5] = assay: Antitumor activity against human A549 cells xenografted in chicken embryo chorioallantoic membrane assessed as reduction in tumor size; format: functional, cell-based; settings: dose 1.5-4.5 µM
Mitochondrial membrane [6] = assay: Induction of mitochondrial membrane depolarization in human A549 cells assessed as increase in mitochondrial fission by measuring appearance of circular mitochondria by confocal microscopic analysis; format: cell membranes
Mitochondrial membrane [7] = assay: Induction of mitochondrial membrane depolarization in human A549 cells assessed as increase in mitochondrial fission by measuring appearance of spherical mitochondria by confocal microscopic analysis; format: cell membranes
MCF7 [8] = assay: Induction of cell cycle arrest in human MCF7 cells assessed as accumulation of cells at S phase at IC50 incubated for 24 hrs by PI staining based flow cytometric analysis relative to control; format: functional
A549 [9] = assay: Induction of cell cycle arrest in human A549 cells assessed as accumulation of cells at G1 phase at IC50 incubated for 48 hrs by PI staining based flow cytometric analysis (reference value: 53.5 +/- 4.01%); format: functional
A549 [10] = assay: Inhibition of colony formation in human A549 cells assessed as reduction in clonogenic capacity incubated for 24 hrs by crystal violet staining based analysis; format: functional, cell-based
Mitochondrial membrane [11] = assay: Induction of mitochondrial membrane depolarization in human A549 cells assessed as increase in mitochondrial fission by measuring appearance of shortened mitochondria by confocal microscopic analysis; format: cell membranes
Mitochondrial membrane [12] = assay: Induction of mitochondrial membrane depolarization in human MCF7 cells assessed as increase in mitochondrial fission by measuring appearance of shortened mitochondria by confocal microscopic analysis; format: cell membranes
Mitochondrial membrane [13] = assay: Disruption of mitochondrial membrane integrity in human A549 cells assessed as organization of mtDNA nucleoids within cells by TEM analysis; format: cell membranes
A549 [14] = assay: Induction of cell cycle arrest in human A549 cells assessed as accumulation of cells at G1 phase at IC50 incubated for 24 hrs by PI staining based flow cytometric analysis (reference value: 37.40 +/- 2.40%); format: functional
MCF7 [15] = assay: Induction of DNA damage in human MCF7 cells assessed as gammaH2AX positive cells at IC50 incubated for 48 hrs by PI staining based flow cytometric analysis (reference value: 7.58 +/- 1.23%); format: functional
Mitochondrial membrane [16] = assay: Disruption of mitochondrial membrane integrity in human A549 cells assessed as presence of bloated mitochondria by TEM analysis; format: cell membranes
HCT-116 [17] = assay: Inhibition of colony formation in human HCT-116 cells assessed as reduction in clonogenic capacity incubated for 24 hrs by crystal violet staining based analysis; format: functional, cell-based
Mitochondrial membrane [18] = assay: Induction of mitochondrial membrane depolarization in human MCF7 cells assessed as increase in mitochondrial fission by measuring appearance of spherical mitochondria by confocal microscopic analysis; format: cell membranes

Activity (Mitochondrial membrane [3]): Active
Activity (Mitochondrial membrane [6]): Active
Activity (Mitochondrial membrane [7]): Active
Activity (Mitochondrial membrane [11]): Active
Activity (Mitochondrial membrane [12]): Active
Activity (Mitochondrial membrane [16]): Active
Activity (Mitochondrial membrane [18]): Active
SMILES: CC(=S)NC1CCc2[nH]c3ccc(Br)cc3c2C1 (stereo not drawn)
inhibition (MCF7 [1]): Dose-Dependent Effect
IC50 (HCT-116 [2]): 40 µM
inhibition (A549 [4]): Active
Activity (A549 [5]): Dose-Dependent Effect
Activity (MCF7 [8]): 25.65%
Activity (A549 [9]): 46.15%
inhibition (A549 [10]): Dose-Dependent Effect
Activity (Mitochondrial membrane [13]): Active
Activity (A549 [14]): 31.6%
Activity (MCF7 [15]): 16.78%
inhibition (HCT-116 [17]): Dose-Dependent Effect
